Results as given in patent US6737383B1, “Herbicidal oxadiazolidines” (priority 1999, dated 2004).

Experiments:
cocklebur = assay: Test B pre/postemergence cocklebur; format: in vivo, Xanthium strumarium
Procedure, shortened: (§1)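 Response is a visual 0-to-10 score relative to untreated plants, where 0 means no effect and 10 means complete control, taken twelve to sixteen days after application. Treatments went onto soil at planting and onto foliage of 1- to 4-leaf plants, using a surfactant-containing non-phytotoxic solvent.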

crabgrass = assay: Test B pre/postemergence crabgrass; format: in vivo, Digitaria sanguinalis
Procedure, shortened: as §1

velvetleaf = assay: Test B pre/postemergence velvetleaf; format: in vivo, Abutilon theophrasti
Procedure, shortened: as §1

rape = assay: Test B pre/postemergence rape; format: in vivo, Brassica napus
Procedure, shortened: as §1

soybean = assay: Test B pre/postemergence soybean; format: in vivo, Glycine max
Procedure, shortened: as §1

surinam grass = assay: Test B pre/postemergence surinam grass; format: in vivo, Brachiaria decumbens
Procedure, shortened: as §1

purple nutsedge = assay: Test B pre/postemergence purple nutsedge; format: in vivo, Cyperus rotundus
Procedure, shortened: as §1

sugar beet = assay: Test B pre/postemergence sugar beet; format: in vivo, Beta vulgaris
Procedure, shortened: as §1

giant foxtail = assay: Test B pre/postemergence giant foxtail; format: in vivo, Setaria faberii
Procedure, shortened: as §1

duck salad = assay: Test B flood test duck salad; format: in vivo, Heteranthera limosa
Procedure, shortened: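 Plants were grown to the 2-leaf stage before treatment with test chemical, then held in a greenhouse for twelve to sixteen days. Injury was visually rated against untreated controls on a 0–10 scale, where 0 is no effect and 10 is complete control.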

pigweed = assay: Test B pre/postemergence pigweed; format: in vivo, Amaranthus retroflexus
Procedure, shortened: as §1

corn = assay: Test B pre/postemergence corn; format: in vivo, Zea mays
Procedure, shortened: as §1

bedstraw = assay: Test B pre/postemergence bedstraw; format: in vivo, Galium aparine
Procedure, shortened: as §1

wheat = assay: Test B pre/postemergence wheat; format: in vivo, Triticum aestivum
Procedure, shortened: as §1

morningglory = assay: Test B pre/postemergence morningglory; format: in vivo, Ipomoea hederacea
Procedure, shortened: as §1

[1] = Postemergence, Rate 62 g/ha, scale 0 to 10, 0 is no effect, 10 is complete control
[2] = Postemergence, Rate 250 g/ha, scale 0 to 10, 0 no effect, 10 complete control
[3] = Preemergence, Rate 62 g/ha, scale 0 to 10 (0 no effect, 10 complete control)
[4] = Preemergence, Rate 125 g/ha, scale 0 to 10 (0 no effect, 10 complete control)
[5] = Preemergence, Rate 250 g/ha, scale of 0 to 10 where 0 is no effect and 10 is complete control
[6] = Preemergence, Rate 500 g/ha, scale 0 (no effect) to 10 (complete control)
[7] = Rate 125 g/ha, Postemergence, scale 0 to 10, 0 no effect, 10 complete control
[8] = Rate 500 g/ha, Postemergence, scale 0 to 10, 0 no effect, 10 complete control

SMILES: Cc1ccccc1Cn1c(=O)on(C(=O)N(c2ccc(F)cc2F)C(C)C)c1=O [Compound 87]
- Cocklebur plant response rating (cocklebur; [1]): 0
- Cocklebur plant response rating (cocklebur; [2]): 2
- Cocklebur plant response rating (cocklebur; [3]): 0
- Plant response rating, Cocklebur (cocklebur; [4]): 0
- Plant response rating, Cocklebur (cocklebur; [5]): 0
- Cocklebur plant response rating (cocklebur; [6]): 0
- Cocklebur plant response rating (cocklebur; [7]): 1
- Cocklebur plant response rating (cocklebur; [8]): 2
- Crabgrass plant response rating (crabgrass; [1]): 2
- Crabgrass plant response rating (crabgrass; [2]): 5
- Crabgrass plant response rating (crabgrass; [3]): 5
- Plant response rating, Crabgrass (crabgrass; [4]): 8
- Plant response rating, Crabgrass (crabgrass; [5]): 10
- Crabgrass plant response rating (crabgrass; [6]): 10
- Crabgrass plant response rating (crabgrass; [7]): 3
- Crabgrass plant response rating (crabgrass; [8]): 9
- Velvetleaf plant response rating (velvetleaf; [1]): 0
- Velvetleaf plant response rating (velvetleaf; [2]): 0
- Velvetleaf plant response rating (velvetleaf; [3]): 0
- Plant response rating, Velvetleaf (velvetleaf; [4]): 0
- Plant response rating, Velvetleaf (velvetleaf; [5]): 3
- Velvetleaf plant response rating (velvetleaf; [6]): 0
- Velvetleaf plant response rating (velvetleaf; [7]): 0
- Velvetleaf plant response rating (velvetleaf; [8]): 1
- Rape plant response rating (rape; [1]): 0
- Rape plant response rating (rape; [2]): 2
- Rape plant response rating (rape; [3]): 0
- Plant response rating, Rape (rape; [4]): 0
- Plant response rating, Rape (rape; [5]): 0
- Rape plant response rating (rape; [6]): 5
- Rape plant response rating (rape; [7]): 0
- Rape plant response rating (rape; [8]): 3
- Soybean plant response rating (soybean; [1]): 2
- Soybean plant response rating (soybean; [2]): 2
- Soybean plant response rating (soybean; [3]): 0
- Plant response rating, Soybean (soybean; [4]): 0
- Plant response rating, Soybean (soybean; [5]): 0
- Soybean plant response rating (soybean; [6]): 4
- Soybean plant response rating (soybean; [7]): 2
- Soybean plant response rating (soybean; [8]): 5
- B. signalgrass plant response rating (surinam grass; [1]): 0
- B. signalgrass plant response rating (surinam grass; [2]): 0
- B. signalgrass plant response rating (surinam grass; [3]): 0
- Plant response rating, B. signalgrass (surinam grass; [4]): 2
- Plant response rating, B. signalgrass (surinam grass; [5]): 4
- B. signalgrass plant response rating (surinam grass; [6]): 5
- B. signalgrass plant response rating (surinam grass; [7]): 0
- B. signalgrass plant response rating (surinam grass; Rate 500 g/ha, Postemergence, scale of 0 to 10 where 0 is no effect and 10 is complete control): 2
- Nutsedge plant response rating (purple nutsedge; [1]): 0
- Nutsedge plant response rating (purple nutsedge; [2]): 0
- Nutsedge plant response rating (purple nutsedge; [3]): 0
- Plant response rating, Nutsedge (purple nutsedge; [4]): 0
- Plant response rating, Nutsedge (purple nutsedge; [5]): 0
- Nutsedge plant response rating (purple nutsedge; [6]): 0
- Nutsedge plant response rating (purple nutsedge; [7]): 0
- Nutsedge plant response rating (purple nutsedge; [8]): 0
- Sugarbeets plant response rating (sugar beet; [1]): 0
- Sugarbeets plant response rating (sugar beet; [2]): 3
- Sugarbeets plant response rating (sugar beet; [3]): 0
- Plant response rating, Sugarbeets (sugar beet; [4]): 0
- Plant response rating, Sugarbeets (sugar beet; [5]): 3
- Sugarbeets plant response rating (sugar beet; [6]): 9
- Sugarbeets plant response rating (sugar beet; [7]): 3
- Sugarbeets plant response rating (sugar beet; [8]): 8
- Giant foxtail plant response rating (giant foxtail; [1]): 0
- Giant foxtail plant response rating (giant foxtail; [2]): 3
- Giant foxtail plant response rating (giant foxtail; [3]): 8
- Plant response rating, Giant foxtail (giant foxtail; [4]): 9
- Plant response rating, Giant foxtail (giant foxtail; [5]): 10
- Giant foxtail plant response rating (giant foxtail; [6]): 10
- Giant foxtail plant response rating (giant foxtail; [7]): 2
- Giant foxtail plant response rating (giant foxtail; [8]): 6
- Ducksalad plant response rating (duck salad; [1]): 0
- Ducksalad plant response rating (duck salad; Rate 31 g/ha, Postemergence section (flood test species), scale 0 to 10): 0
- Ducksalad plant response rating (duck salad; Rate 125 g/ha, Postemergence section (flood test species), scale 0 to 10, 0 no effect, 10 complete control): 0
- Ducksalad plant response rating (duck salad; Rate 250 g/ha, headed Pre-emergence (flood test species), scale 0 to 10 (0 no effect, 10 complete control)): 0
- Plant response rating, Ducksalad (duck salad; Rate 500 g/ha, headed Pre-emergence (flood test species), scale 0 to 10 (0 no effect, 10 complete control)): 0
- Ducksalad plant response rating (duck salad; Rate 1000 g/ha, Pre-emergence (as headed), scale 0 to 10): 0
- Ducksalad plant response rating (duck salad; Rate 2000 g/ha, Pre-emergence (as headed), scale 0 to 10): 0
- Ducksalad plant response rating (duck salad; flood test, listed under Postemergence, Rate 250 g/ha, scale 0 to 10, 0 no effect, 10 complete control): 0
- Redroot pigweed plant response rating (pigweed; [1]): 0
- Redroot pigweed plant response rating (pigweed; [2]): 5
- Redroot pigweed plant response rating (pigweed; [3]): 4
- Plant response rating, Redroot pigweed (pigweed; [4]): 4
- Plant response rating, Redroot pigweed (pigweed; [5]): 8
- Redroot pigweed plant response rating (pigweed; [6]): 10
- Redroot pigweed plant response rating (pigweed; [7]): 0
- Redroot pigweed plant response rating (pigweed; [8]): 2
- Corn plant response rating (corn; [1]): 0
- Corn plant response rating (corn; [2]): 0
- Corn plant response rating (corn; [3]): 0
- Plant response rating, Corn (corn; [4]): 0
- Plant response rating, Corn (corn; [5]): 0
- Corn plant response rating (corn; [6]): 2
- Corn plant response rating (corn; [7]): 0
- Corn plant response rating (corn; [8]): 2
- Bedstraw plant response rating (bedstraw; [1]): 2
- Bedstraw plant response rating (bedstraw; [2]): 6
- Bedstraw plant response rating (bedstraw; [3]): 0
- Plant response rating, Bedstraw (bedstraw; [4]): 0
- Plant response rating, Bedstraw (bedstraw; [5]): 0
- Bedstraw plant response rating (bedstraw; [6]): 3
- Bedstraw plant response rating (bedstraw; [7]): 4
- Bedstraw plant response rating (bedstraw; [8]): 8
- Wheat plant response rating (wheat; [1]): 0
- Wheat plant response rating (wheat; [2]): 0
- Wheat plant response rating (wheat; [3]): 0
- Plant response rating, Wheat (wheat; [4]): 0
- Plant response rating, Wheat (wheat; [5]): 0
- Wheat plant response rating (wheat; [6]): 0
- Wheat plant response rating (wheat; [7]): 0
- Wheat plant response rating (wheat; [8]): 2
- Morningglory plant response rating (morningglory; [1]): 4
- Morningglory plant response rating (morningglory; [2]): 7
- Morningglory plant response rating (morningglory; [3]): 0
- Plant response rating, Morningglory (morningglory; [4]): 0
- Plant response rating, Morningglory (morningglory; [5]): 0
- Morningglory plant response rating (morningglory; [6]): 0
- Morningglory plant response rating (morningglory; [7]): 7
- Morningglory plant response rating (morningglory; [8]): 9
